Measurements from patent US4001230A, “3-(5-Nitroimidazol-2-yl)pyrazolo[3,4-d]pyrimidine compounds” (Eli Lilly and Company, priority 1975, dated 1977).
Like-named read-outs stand apart in the source and are kept apart here.

Experiments:
Aeromonas liquefaciens = assay: In vitro activity against fish bacterial pathogen, standard tube dilution test (MIC); type: cell-based; conditions: Aeromonas hydrophila, read-out: minimum inhibitory concentration (MIC)
Protocol: (§1) The in vitro activity of certain of the novel compounds of this invention against two fish bacterial pathogens was determined using tryptose broth and the standard tube dilution test system. Doubling dilutions ranging from 100.0 to 0.78 mcg./ml. of each of the test compounds were prepared in 5 ml. amounts of tryptose broth. Each tube in the series was then inoculated with one drop from a 24-hour broth culture of either Pseudomonas sp. or a strain of Aeromonas liquefaciens. The tubes were incubated overnight at about 37° C., and the minimum inhibitory concentration (MIC) determined and recorded.
(§2) Column 1 lists the test compounds identified by their operating example number; column 2 lists the MIC for Pseudomonas sp.; and column 3 lists the MIC for Aeromonas liquefaciens.

Pseudomonas sp. = assay: as above; type: cell-based; conditions: tryptose broth, overnight, about 37° C., read-out: minimum inhibitory concentration (MIC)
Protocol: as §1, §2

Treponema hyodysenteriae = assay: In vitro activity against Treponema hyodysenteriae on blood agar plates (MIC); type: cell-based; conditions: for MIC: Brachyspira hyodysenteriae, 96 h, read-out: minimum inhibitory concentration (MIC); for inhibition of growth of the treponema: doubling dilutions 100 mcg./ml. to 0.39 mcg./ml.
Protocol: A number of representative compounds, namely, 5b, 8, and 15b, were tested for their in vitro activity against Treponema hyodysenteriae. The treponema were propagated on blood agar plates. Each plate which was prepared contained 20 ml. of trypticase soy agar (Baltimore Biological Laboratory [BBL]) with 5.0 g./l. of yeast extract (Difco) and 5 percent sterile defibrinated horse blood. The plates were sterile plastic 15 × 100 mm. petri plates. Incubation was carried out at 37° C. for 4 days under anaerobic conditions using the BBL Gas Pak system.
The concentrations of test compounds in this initial test were prepared in dilutions ranging from 2000 mcg./ml. to 7.8 mcg./ml. The test procedure was carried out in the following manner. Five ml. of a twenty-fold concentration in tryptose broth (Difco) of each filter-sterilized test compound dilution was mixed in a series of flasks containing 90 ml. of melted trypticase soy agar with yeast extract. Five ml. of horse blood was then added per flask. The contents of these flasks were then used to prepare a series of blood agar plates in doubling decreasing dilutions ranging from 100 mcg./ml. to 0.39 mcg./ml.
The treponema for inoculation of these plates were obtained by adding 3.0 ml. of sterile tryptose broth to the surface of a plate on which the treponema had been propagated. A sterile cotton-tipped swab was used to loosen the treponema from the agar. […] The inoculum was spread so that it covered the surface of each plate, a bent sterile plastic pipette being used for this purpose for each plate. The plates were incubated at about 36° C. for about 4 days and then examined for growth of the treponema. The minimum inhibitory concentration (MIC) of each test compound was the concentration that prevented growth of treponema.

Pasteurella multocida = assay: Efficacy against Pasteurella multocida infections in mice when administered by injection; type: in vivo, Female Swiss mice; conditions: for responders at 5 mg/kg / responders at 2.5 mg/kg: Pasteurella multocida, ip, read-out: Survival ratio (mice surviving / mice tested) (converted)
Protocol: The efficacy of the novel compounds against Pasteurella multocida infections in mice when administered by injection was studied.
Female Swiss mice weighing from 15 to about 20 g. were used. The test compound, 5.0 mg., was weighed out and dissolved in 0.5 ml. of dimethyl sulfoxide, and this solution was added to 9.5 ml. of sodium carboxymethylcellulose suspension. Groups of five mice each were injected intraperitoneally with 0.1 ml. each of the above-prepared test composition. This preparation gave a test rate of 2.5 mg. per kilo of body weight of mouse. The compounds were tested at 1.25, 2.5, or 5.0 per kilogram of body weight of mouse, and the test preparations for the rates of 1.25 and 5.0 mg./kg. were prepared in a similar manner. Immediately after receiving the test compound, the mice were challenged using log10 dilutions of 10^-^4, 10^-^5 and 10^-^6,of a 16 to 20-hour tryptose broth culture of Pasteurella multocida at 0.1 ml. per mouse subcutaneously. Similar groups of nontreated control mice were also challenged, the challenge being administered subcutaneously. The groups of mice were observed daily for mortality and the total mortality in treated groups compared with that which occurred in the nonmedicated control groups. Each test compound is identified by the number of the example describing its preparation.
In the chart, column 1 lists the test compound; column 2, the dosage of test compound in mg./kg. of mouse body weight; column 3, the dilution of the challenge organism; and column 4, the ratio of the number of mice surviving the test at each dosage and challenge dilution to the number of mice tested at each dosage and challenge dilution, called the survival ratio.

[1] = 5.0 mg./kg. intraperitoneal, challenge dilution 10^-^4 subcutaneous
[2] = 5.0 mg./kg. intraperitoneal, challenge dilution 10^-^5 subcutaneous
[3] = 5.0 mg./kg. intraperitoneal, challenge dilution 10^-^6 subcutaneous
[4] = Aeromonas liquefaciens, tryptose broth, overnight, about 37° C.
[5] = 2.5 mg./kg. intraperitoneal, challenge dilution 10^-^4 subcutaneous
[6] = 2.5 mg./kg. intraperitoneal, challenge dilution 10^-^5 subcutaneous
[7] = 2.5 mg./kg. intraperitoneal, challenge dilution 10^-^6 subcutaneous

| Compound | responders at 5 mg/kg (Pasteurella multocida; [1]) [%] | responders at 5 mg/kg (Pasteurella multocida; [2]) [%] | responders at 5 mg/kg (Pasteurella multocida; [3]) [%] | further results |
| --- | --- | --- | --- | --- |
| CCCn1cnc2c(c(-c3ncc([N+](=O)[O-])n3C)nn2C)c1=N.O=[N+]([O-])O [Example 5b, 4,5-Dihydro-4-imino-1-methyl-3-(1-methyl-5-nitroimidazol-2-yl)-5-propyl-1H-pyrazolo[3,4-d]pyrimidine mononitrate] | – | – | – | MIC (Aeromonas liquefaciens): 25 µg/mL; MIC (Pseudomonas sp.): 3.12 µg/mL; MIC (Treponema hyodysenteriae): ≤ 1.56 µg/mL; inhibition of growth of the treponema (Treponema hyodysenteriae): inhibited growth of the treponema at each of the levels tested |
| CCN(CC)CCn1cnc2c(c(-c3ncc([N+](=O)[O-])n3C)nn2C)c1=N [Example 8a, 5-[2-(Diethylamino)ethyl]-4,5-dihydro-4-imino-1-methyl-3-(1-methyl-5-nitroimidazol-2-yl)-1H-pyrazolo[3,4-d]-pyrimidine] | 40 | 20 | 100 | – |
| CC(=O)Nc1ncnc2c1c(-c1ncc([N+](=O)[O-])n1C)nn2C [Example 11, N-[1-Methyl-3-(1-methyl-5-nitroimidazol-2-yl)-1H-pyrazolo[3,4-d]-pyrimidin-4-yl]acetamide] | 0 | 0 | 20 | – |
| Cn1c([N+](=O)[O-])cnc1-c1nn(C)c2nc(C(F)(F)F)[nH]c(=O)c12 [Example 12, 1,5-Dihydro-1-methyl-3-(1-methyl-5-nitroimidazol-2-yl)-6-(trifluoromethyl)-4H-pyrazolo[3,4-d]pyrimidin-4-one] | 20 | 20 | 0 | – |
| Cn1c([N+](=O)[O-])cnc1-c1nn(C)c2ncnc(NN)c12.O=P(O)(O)O [Example 9a, 4-hydrazino-1-methyl-3-(1-methyl-5-nitroimidazol-2-yl)-1H-pyrazolo[3,4-d]-pyrimidine monophosphate] | – | – | – | MIC (Aeromonas liquefaciens; [4]): 25 µg/mL; MIC (Pseudomonas sp.): 0.78 µg/mL |
| Cn1c([N+](=O)[O-])cnc1-c1nn(C)c2ncnc(NCC(=O)O)c12 [Example 6, N-[1-Methyl-3-(1-methyl-5-nitroimidazol-2-yl)-1H-pyrazolo[3,4-d]pyrimidin-4-yl]glycine] | 20 | 20 | 20 | – |
| Cl.Cn1c([N+](=O)[O-])cnc1-c1nn(C)c2ncnc(N)c12 [Example 4a, 4-amino-1-methyl-3-(1-methyl-5-nitroimidazol-2-yl)-1H-pyrazolo[3,4-d]pyrimidine hydrochloride] | – | – | – | Survival ratio (mice surviving / mice tested) (Pasteurella multocida; [1]): 7/10; Survival ratio (mice surviving / mice tested) (Pasteurella multocida; [2]): 7/10; Survival ratio (mice surviving / mice tested) (Pasteurella multocida; [3]): 7/10 |
| CCn1cnc2c(c(-c3ncc([N+](=O)[O-])n3C)nn2C)c1=N [Example 7, 5-Ethyl-4,5-dihydro-4-imino-1-methyl-3-(1-methyl-5-nitroimidazol-2-yl)-1H-pyrazolo[3,4-d]pyrimidine] | 40 | 70 | 100 | responders at 2.5 mg/kg (Pasteurella multocida; [5]): 20%; responders at 2.5 mg/kg (Pasteurella multocida; [6]): 40%; responders at 2.5 mg/kg (Pasteurella multocida; [7]): 60% |
| Cn1c([N+](=O)[O-])cnc1-c1nn(C)c2ncnc(NN)c12 [Example 9, 4-Hydrazino-1-methyl-3-(1-methyl-5-nitroimidazol-2-yl)-1H-pyrazolo[3,4-d]pyrimidine] | 100 | 80 | 90 | – |
| CCOC(Cn1cnc2c(c(-c3ncc([N+](=O)[O-])n3C)nn2C)c1=N)OCC [Example 14, 4-Imino-1-methyl-3-(1-methyl-5-nitroimidazol-2-yl)-1H-pyrazolo-[3,4-d]pyrimidine-5(4H)-acetaldehyde, diethyl acetal] | 0 | 20 | 40 | – |
| Cn1c([N+](=O)[O-])cnc1-c1nn(C)c2ncn(CCN3CCOCC3)c(=N)c12 [Example 15b, 4,5-Dihydro-4-imino-1-methyl-3-(1-methyl-5-nitroimidazol-2-yl)-5-(2-morpholinoethyl)-1H-pyrazolo[3,4-d]-pyrimidine diphosphate] | – | – | – | MIC (Aeromonas liquefaciens; [4]): 50 µg/mL; MIC (Pseudomonas sp.): 1.56 µg/mL; MIC (Treponema hyodysenteriae; blood agar plates, about 36° C., about 4 days): ≤ 1.56 µg/mL; inhibition of growth of the treponema (Treponema hyodysenteriae): inhibited growth of the treponema at each of the levels tested |
| Cn1c([N+](=O)[O-])cnc1-c1nn(C)c2ncn(Cc3ccncc3)c(=N)c12 [Example 8k, 4,5-dihydro-4-imino-1-methyl-3-(1-methyl-5-nitroimidazol-2-yl)-5-(4-pyridylmethyl)-1H-pyrazolo[3,4-d]pyrimidine diphosphate] | – | – | – | MIC (Aeromonas liquefaciens; [4]): 50 µg/mL; MIC (Pseudomonas sp.): 0.78 µg/mL |
| Cn1c([N+](=O)[O-])cnc1-c1nn(C)c2ncnc(N)c12 [Example 4, 4-Amino-1-methyl-3-(1-methyl-5-nitroimidazol-2-yl)-1H-pyrazolo-[3,4-d]pyrimidine] | – | 50 | 50 | Survival ratio (mice surviving / mice tested) (Pasteurella multocida; [1]): 4/10 |
| CN(C)CCn1cnc2c(c(-c3ncc([N+](=O)[O-])n3C)nn2C)c1=N.Cl.Cl [Example 8g, 5-[2-(dimethylamino)-ethyl]-4,5-dihydro-4-imino-1-methyl-3-(1-methyl-5-nitroimidazol-2-yl)-1H-pyrazolo[3,4-d]pyrimidine dihydrochloride] | – | – | – | Survival ratio (mice surviving / mice tested) (Pasteurella multocida; [5]): 2/10; Survival ratio (mice surviving / mice tested) (Pasteurella multocida; [6]): 6/10; Survival ratio (mice surviving / mice tested) (Pasteurella multocida; [7]): 10/10; Survival ratio (mice surviving / mice tested) (Pasteurella multocida; [1]): 7/10; Survival ratio (mice surviving / mice tested) (Pasteurella multocida; [2]): 9/10; Survival ratio (mice surviving / mice tested) (Pasteurella multocida; [3]): 10/10 |
| CCCn1cnc2c(c(-c3ncc([N+](=O)[O-])n3C)nn2C)c1=N [Example 5, 4,5-Dihydro-4-imino-1-methyl-3-(1-methyl-5-nitroimidazol-2-yl)-5-propyl-1H-pyrazolo[3,4-d]pyrimidine] | 30 | 60 | 90 | – |
| Cn1c([N+](=O)[O-])cnc1-c1nn(C)c2ncn(Cc3ccncc3)c(=N)c12 [Example 8d, 4,5-Dihydro-4-imino-1-methyl-3-(1-methyl-5-nitroimidazol-2-yl)-5-(4-pyridylmethyl)-1H-pyrazolo[3,4-d]pyrimidine] | 100 | 100 | 100 | – |
